Results taken from PubChem BioAssay (NCI).
Values joined by “and” are separate entries in the source; they are usually repeats but may differ in a detail not shown here. Identical values can stand only once.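 Assay format: 96-well plates, 48-hour exposure. The concentration for 50% growth inhibition is given as GI50. TGI denotes the concentration required for complete inhibition of growth.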

Tests used:
Experiment in all cases: NCI anticancer screen, dose series, 48 h
NCI-H460 lung = tested on: NCI-H460 lung
MCF7 breast = tested on: MCF7 breast
NCI/ADR-RES ovarian = tested on: NCI/ADR-RES ovarian
ACHN renal = tested on: ACHN renal
SNB-75 CNS = tested on: SNB-75 CNS
U251 CNS = tested on: U251 CNS
HOP-62 NSCLC = tested on: HOP-62 NSCLC
LOX IMVI melanoma = tested on: LOX IMVI melanoma
SN12C renal = tested on: SN12C renal
MOLT-4 leukemia = tested on: MOLT-4 leukemia

Compound | TGI (NCI-H460 lung) [µM] | TGI (MCF7 breast) | TGI (NCI/ADR-RES ovarian) [µM] | TGI (ACHN renal) [µM] | TGI (SNB-75 CNS) [µM] | TGI (U251 CNS) [µM] | TGI (HOP-62 NSCLC) | TGI (LOX IMVI melanoma) [µM] | TGI (SN12C renal) | GI50 (NCI-H460 lung) [µM] | GI50 (MCF7 breast) [µM] | GI50 (NCI/ADR-RES ovarian) | GI50 (MOLT-4 leukemia) [µM] | TGI (MOLT-4 leukemia) [µM] | GI50 (ACHN renal) [µM] | GI50 (SNB-75 CNS) [µM] | GI50 (U251 CNS) [µM] | GI50 (HOP-62 NSCLC) [µM] | GI50 (LOX IMVI melanoma) [µM] | GI50 (SN12C renal) [µM]
CCCC(=O)Nc1cc([N+](=O)[O-])c([N+](=O)[O-])cc1OC | 35.4 | > 100 µM | > 100 | 26.5 | 30.3 | 29.8 | 28.1 µM | > 100 | 29.5 µM | – | – | – | – | – | – | – | – | – | – | –
CC(C)(C)c1cn2cccc(C(=O)N3CCN(CC(=O)Nc4ccc(Cl)cc4C(=O)c4ccccc4Cl)CC3)c2n1 | 23 | 20.8 µM | > 100 | 61.4 | 90.2 | 25.5 | 32.3 µM | 23.9 | 35.4 µM | 5.79 | 3.94 | 6.7 µM | 5.52 | > 100 | 6.62 | 12.8 | 7.68 | 15.4 | 11 | 10.6
O=C(Nc1cccc([N+](=O)[O-])c1)c1ccc2ccccc2c1O | > 100 | > 43.2 µM | > 86.5 | > 95.4 | > 100 | > 86.8 | > 100 µM | > 100 | > 93 µM | 3.69 | 2.88 | 5.62 µM | 3.4 | > 46.5 | 12.2 | 17 | 4.36 | 10.8 | 9.94 | 12
Cc1ccc(S(=O)(=O)N/N=C/c2oc(-c3ccccc3Cl)c(-c3ccccc3Cl)c2[N+](=O)[O-])cc1 | 29.9 | – | – | 39.2 | – | – | 43.5 µM | – | 66.6 µM | – | – | – | – | > 100 | – | – | – | – | – | –
Cc1ccc([N+](=O)[O-])cc1NC(=O)C(=O)Cc1cc(=O)oc2cc(O)ccc12 | > 100 | – | – | > 100 | > 100 | > 100 | > 100 µM | 97 | > 100 µM | – | – | – | – | > 100 | – | – | – | – | – | –
O=C(Nc1ccc([N+](=O)[O-])cc1C(=O)O)c1ccc([N+](=O)[O-])cc1 | > 100 | – | – | > 100 | > 100 | > 100 | > 100 µM | > 100 | > 100 µM | – | – | – | – | 31.4 | – | – | – | – | – | –
Cn1cnc([N+](=O)[O-])c1SC1=NCCS1 | > 100 | – | – | > 100 | > 100 | > 100 | > 100 µM | 39 | > 100 µM | – | – | – | – | > 100 | – | – | – | – | – | –
COc1ccc2cc3[n+](cc2c1OC)CCc1cc2c(cc1-3)OCO2 | – | > 100 µM and > 88.3 µM and 126 µM | > 325 | > 100 | – | – | > 100 µM and 42.4 µM | > 201 | > 100 µM and 75.2 µM and 81 µM | 6.22 | – | > 100 µM and 323 µM | – | – | – | 21.4 | – | – | – | –
COC(=O)c1oc2c(O)c(OC)c(Br)cc2c1C | > 100 | > 100 µM | – | 36.2 | – | 33.1 | 51.4 µM | 39.2 | – | 64 | 27.1 | – | 22.4 | 43 | 20.2 | – | 18.2 | 23.3 | 23.5 | –
COc1ccc(NC(=O)COC(=O)c2cccc3c(=O)c4ccccc4[nH]c23)cc1 | – | – | – | 45.6 | 41.2 | 44.8 | 55.1 µM | 28.3 | 92.8 µM | – | – | – | – | 33.7 | – | – | – | – | – | –
O=c1[nH]c(=O)n(C2CC(O)C(CO)O2)cc1C#Cc1cc(C(F)(F)F)cc(C(F)(F)F)c1 (configuration not stated) | > 100 | – | – | > 100 | > 67.1 | > 100 | > 100 µM | > 45.9 | > 100 µM | – | – | – | – | > 100 | – | – | – | – | – | –
COCOCc1cc(OCc2ccccc2)c(OC)cc1Br | > 100 | – | – | > 100 | > 100 | > 100 | > 100 µM | > 100 | > 100 µM | – | – | – | – | – | – | – | – | – | – | –
O=C(CC/C(CC(=O)c1ccc(Cl)cc1)=N/O)Nc1ccc(Cl)c(Cl)c1 | > 100 | – | – | > 100 | > 100 | > 100 | > 100 µM | – | > 100 µM | – | – | – | – | > 100 | – | – | – | – | – | –
COc1ccc(Cn2cnc3cc(C(=O)Nc4cccc5ccccc45)ccc32)c(OC)c1 | 1.21 | > 100 µM | > 100 | > 100 | – | > 100 | – | > 100 | > 100 µM | 0.0363 | 0.0357 | 0.042 µM | 0.0621 | > 100 | 0.078 | – | 0.0398 | – | 0.0611 | 0.0691
O=C1Nc2ccccc2/C1=C/c1cn(C(=O)c2c(Cl)cccc2Cl)c2ccccc12 | 3.97 | – | 18 | 21.7 | – | 15.5 | 40.4 µM | 3.24 | 19.3 µM | 2 | – | 3.4 µM | 2.82 | > 100 | 3.17 | – | 3.47 | 12.8 | 1.59 | 4
CC(=O)c1c(O)ccc2c(C)c(C(=O)O)oc12 | > 100 | > 100 µM | > 100 | > 100 | > 100 | > 100 | > 100 µM | > 100 | – | > 100 | > 100 | > 100 µM | > 100 | > 100 | > 100 | > 100 | > 100 | > 100 | > 100 | –
Oc1ccccc1Nc1nc2ccccc2c2occc12 | 27.6 | 51.8 µM | – | 17 | – | 24.7 | 21.7 µM | 9.39 | 23.1 µM | 14.1 | 25.2 | – | – | – | 3.9 | – | 12.3 | 7.69 | 2.43 | 11.1
C#C[C@@]1(O)CCCC2=CC(=O)C[C@]21C | > 100 | – | – | > 100 | – | > 100 | – | – | > 100 µM | – | – | – | – | > 100 | – | – | – | – | – | –
Cc1cc(Cl)ccc1NC(=O)CC1SC(N)=NC1=O (configuration not stated) | > 100 | – | – | > 100 | > 100 | > 100 | > 100 µM | > 100 | > 100 µM | – | – | – | – | > 100 | – | – | – | – | – | –
